Where two headings read alike, the source gives them in different places.
How the values were obtained:
[1] = tested on: RPMI8226.BR cells; test: Cell viability of bortezomib-resistant myeloma cells; assay type: cell-based
[2] = tested on: MM.1S.BR cells; test: as above; assay type: cell-based
[3] = tested on: 5TGM1-GFP cells; test: Cell proliferation by cell counting; assay type: cell-based; settings: 1 µM, 5 days
[4] = tested on: UBL-YFP-PEST in HEK293T cells; test: UBL-YFP-PEST reporter degradation; assay type: cell-based; settings: 10 μM, 1 h pretreatment, CHX 2 h
[5] = target: T1, DYRK3 (Homo sapiens, UniProt O43781); test: DYRK3 kinase assay, IC50 determination
T1 sequence (O43781 1-588): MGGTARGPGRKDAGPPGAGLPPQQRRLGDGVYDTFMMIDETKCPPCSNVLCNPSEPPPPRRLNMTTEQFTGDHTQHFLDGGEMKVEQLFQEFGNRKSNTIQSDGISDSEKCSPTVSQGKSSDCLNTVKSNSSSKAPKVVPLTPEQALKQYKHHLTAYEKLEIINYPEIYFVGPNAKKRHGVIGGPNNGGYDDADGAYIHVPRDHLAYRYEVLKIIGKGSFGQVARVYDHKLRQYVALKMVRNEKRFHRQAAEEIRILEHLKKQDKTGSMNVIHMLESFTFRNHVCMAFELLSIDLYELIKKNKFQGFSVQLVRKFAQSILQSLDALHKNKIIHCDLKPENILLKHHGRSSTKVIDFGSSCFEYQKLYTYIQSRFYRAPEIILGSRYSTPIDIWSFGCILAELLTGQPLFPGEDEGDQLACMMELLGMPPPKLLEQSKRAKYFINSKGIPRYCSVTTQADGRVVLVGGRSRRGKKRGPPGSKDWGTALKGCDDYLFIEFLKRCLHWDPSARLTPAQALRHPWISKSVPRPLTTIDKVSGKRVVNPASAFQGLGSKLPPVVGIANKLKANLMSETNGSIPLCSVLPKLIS

[6] = target: T2, GSK3β (Homo sapiens, UniProt P49841); settings: read-out: IC50 GSK3β; cited from earlier work
T2 sequence (P49841 whole entry): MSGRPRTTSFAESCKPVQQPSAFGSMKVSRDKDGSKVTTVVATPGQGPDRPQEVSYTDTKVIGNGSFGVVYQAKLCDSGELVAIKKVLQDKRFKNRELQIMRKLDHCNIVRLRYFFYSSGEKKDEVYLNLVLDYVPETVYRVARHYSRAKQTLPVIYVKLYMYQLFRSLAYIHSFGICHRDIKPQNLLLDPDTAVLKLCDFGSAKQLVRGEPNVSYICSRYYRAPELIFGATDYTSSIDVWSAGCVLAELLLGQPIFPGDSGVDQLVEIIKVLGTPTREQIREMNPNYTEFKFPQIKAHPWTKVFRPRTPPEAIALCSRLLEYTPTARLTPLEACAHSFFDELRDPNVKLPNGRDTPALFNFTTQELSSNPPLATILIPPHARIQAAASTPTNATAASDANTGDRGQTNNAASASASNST

[7] = tested on: 26S proteasome in HaCaT cells; test: Proteasome activity in total cell lysates, Suc-LLVY-AMC; assay type: cell-based; settings: 10 μM, 1 h
[8] = tested on: MDA-MB-231 cells; test: Cell proliferation by cell counting; assay type: cell-based; settings: 3 µM
[9] = tested on: MDA-MB-231 xenograft tumors; test: MDA-MB-231 tumor xenograft in NSG mice; assay type: in vivo
[10] = tested on: Hs578T cells; test: Matrigel transwell invasion assay; assay type: cell-based; settings: 5 μM, 24 h
[11] = target: T2, GSK3β; test: GSK3β kinase assay, IC50 determination; assay type: biochemical
[12] = tested on: multiple myeloma cell lines; test: Caspase 3/7 activity; assay type: cell-based; settings: multiple myeloma cell lysates, 16 h
[13] = target: T3, DYRK2 (Homo sapiens, UniProt Q92630); test: pT25 RPT3 phosphorylation in HEK293T cells stably expressing FLAG-DYRK2; assay type: cell-based
T3 sequence (Q92630 1-601): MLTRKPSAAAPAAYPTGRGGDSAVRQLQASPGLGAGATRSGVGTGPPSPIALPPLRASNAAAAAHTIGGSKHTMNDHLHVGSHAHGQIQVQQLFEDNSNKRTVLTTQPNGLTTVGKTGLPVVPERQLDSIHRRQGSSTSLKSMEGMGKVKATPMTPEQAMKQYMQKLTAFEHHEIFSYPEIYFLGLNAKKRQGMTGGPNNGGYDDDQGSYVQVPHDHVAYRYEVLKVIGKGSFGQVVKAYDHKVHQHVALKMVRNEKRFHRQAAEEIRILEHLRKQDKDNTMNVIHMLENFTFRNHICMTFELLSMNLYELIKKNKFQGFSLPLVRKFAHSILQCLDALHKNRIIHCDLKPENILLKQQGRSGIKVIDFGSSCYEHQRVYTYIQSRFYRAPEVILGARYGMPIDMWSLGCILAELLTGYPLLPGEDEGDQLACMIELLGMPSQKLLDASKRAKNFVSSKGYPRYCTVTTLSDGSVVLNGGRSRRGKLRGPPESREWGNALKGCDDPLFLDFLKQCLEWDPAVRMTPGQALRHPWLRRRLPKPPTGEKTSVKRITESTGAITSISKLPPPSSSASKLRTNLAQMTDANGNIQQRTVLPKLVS

[14] = tested on: 26S proteasome; test: Affinity-purified 26S proteasome, bodipy-casein degradation in vitro; assay type: biochemical, human; settings: 10 μM
[15] = tested on: MDA-MB-231 cells; test: Matrigel transwell invasion assay; assay type: cell-based; settings: MDA-MB-231, 5 μM, 24 h
[16] = tested on: 26S proteasome in MDA-MB-231 cells; test: Proteasome activity in total cell lysates, Suc-LLVY-AMC; assay type: cell-based; settings: 1 h
[17] = target: T3, DYRK2; test: DYRK2 kinase assay, IC50 determination; assay type: biochemical; settings: 0.025 mM, 0.1 mM or 2 mM ATP

Question: For CC(C)C[C@H](NC(=O)[C@H](Cc1ccccc1)NC(=O)c1cnccn1)B(O)O [bortezomib], which “resistance to bortezomib relative to bortezomib-sensitive cells” value ([1]; RPMI8226.BR vs RPMI8226) is on record?
Answer: The value was 20- to 100 fold.

Question: And the “resistance to bortezomib relative to bortezomib-sensitive cells” value ([2]; MM.1S.BR vs MM.1S)?
Answer: Its value is 20- to 100 fold.

Question: Which “cytotoxicity versus bortezomib-sensitive WT counterpart” value ([1]; RPMI8226.BR, 10 μM, 24 h) does the source give for COc1cc(/C=C/C(=O)CC(=O)/C=C/c2ccc(O)c(OC)c2)ccc1O [curcumin] here?
Answer: Its value is “comparable cytotoxicity”.

Question: What about the “rate of cell proliferation compared with DMSO-treated controls” value [3] of the same compound?
Answer: The value was “markedly slower rate of cell proliferation”.

Question: And the “UBL-YFP-PEST reporter protein degradation” value [4]?
Answer: The value was “stabilized”.

Question: What about the IC50 [5] of the same compound?
Answer: The IC50 was 20 nM.

Question: And the IC50 [6]?
Answer: Its IC50 is 66 nM.

Question: What about the “proteasome activity with curcumin treatment in DYRK2-null cells” value ([7]; DYRK2-null HaCaT) of the same compound?
Answer: Its value is “no further decrease of proteasome activity”.

Question: And the “decrease of proteasome activity toward Suc-LLVY-AMC” value ([7]; HaCaT parental)?
Answer: The value was 25–40%.

Question: And the “cell proliferation in DYRK2 KO cells” value ([8]; MDA-MB-231 DYRK2 KO)?
Answer: Its value is “did not exhibit a further decrease in cell proliferation”.

Question: And the “rate of cell proliferation compared with DMSO-treated controls” value ([8]; MDA-MB-231 WT, 5 days)?
Answer: The value was “markedly slower rate of cell proliferation”.

Question: What about the “Ki-67 staining in xenograft tumors” value ([9]; 300 mg/kg i.p.) of the same compound?
Answer: Its value is “greatly attenuated”.

Question: And the tumor burden ([9]; 300 mg/kg i.p. every alternate day, after 2 wk of treatment, NSG mice)?
Answer: Its tumor burden is “significantly reduced tumor burden”.

Question: And the “reduction of proteasome activity in curcumin-treated mouse tumors” value ([9]; 300 mg/kg i.p., whole-tumor lysates, Suc-LLVY-AMC)?
Answer: The value was 30%.

Question: What about the “cell invasion, 3D matrigel invasion assay” value [10] of the same compound?
Answer: Its value is “largely blocked”.

Question: What about the IC50 [11] of the same compound?
Answer: The IC50 was > 3000 nM.

Question: And the “cytotoxicity versus bortezomib-sensitive WT counterpart” value ([2]; MM.1S.BR, 10 μM, 24 h)?
Answer: The value was “comparable cytotoxicity”.

Question: And the caspase3/7 activity [12]?
Answer: Its caspase3/7 activity is “significant increase”.

Question: What about the “concentration at which curcumin inhibits DYRK2 in cells” value [13] of the same compound?
Answer: Its value is 1 to 10 µM.

Question: And the “inhibitor concentration of maximal suppression of pT25 RPT3 phosphorylation” value ([13]; 0.5 h)?
Answer: Its value is 3–10 μM.

Question: And the “effect on activity of affinity-purified proteasome to degrade BODIPY-casein” value [14]?
Answer: The value was “no significant effect”.

Question: And the “cell invasion, 3D matrigel invasion assay” value [15]?
Answer: Its value is “largely blocked”.

Question: And the “proteasome activity with curcumin treatment in DYRK2-null cells” value ([16]; DYRK2-null MDA-MB-231, 10 μM)?
Answer: The value was “no further decrease of proteasome activity”.

Question: And the “decrease of proteasome activity toward Suc-LLVY-AMC” value ([16]; MDA-MB-231 parental, 10 μM)?
Answer: The value was 25–40%.

Question: What about the “effect of higher concentrations of ATP on the IC50 for DYRK2” value [17] of the same compound?
Answer: Its value is “modest effect”.

— article PMC6094102 (Proceedings of the National Academy of Sciences of the …, 2018)
